The values that follow are results of earlier work, collected in paper PMC10925453, “Selective Bias Virtual Screening for Discovery of Promising Antimalarial Candidates targeting Plasmodium N-Myristoyltransferase” (Research Square, 2024).

Data set [1] deals with Plasmodium NMT. Also noted: method as in earlier work. The conditions noted are these: ligand of the PDB structure, activity against Plasmodium NMT; ref PDB.
Data set [2] relates to human isoform 1. The conditions noted are these: no reference given.

One may read the Ki as the equilibrium dissociation constant of an inhibitor or competing ligand from its target. By IC50 is commonly meant the concentration that inhibits the measured activity by half. `Cc1nn(C)c(C)c1Cc1nnc(-c2sc3ccccc3c2OC2CCNCC2)o1` [2YNE, 2-(3-piperidin-4-yloxy-1-benzothiophen-2-yl)-5-[(1,3,5-trimethylpyrazol-4-yl)methyl]-1,3,4-oxadiazole]: the Ki in data set [1] is 2.7 nM. Besides, the IC50 in data set [2] is 60 ± 3 nM. On to `Cc1nn(C)c(C)c1NS(=O)(=O)c1c(Cl)cc(-c2ccnc(N3CCNCC3)c2)cc1Cl` [2YND], for which the Ki in data set [1] was 32 nM.
